Reference: patent US20240002437A1, “COMPOSITIONS AND METHODS OF TREATING INFLAMMATORY LUNG DISEASES” (priority 2020, published 2024)

Tested on: PAEC
Assay: Cellular peroxynitrite levels (DHR 123 oxidation) in PAEC
Format: cell-based, ovine
Conditions: 4αPDD
Description: Primary cultures of ovine pulmonary arterial endothelial cells (PAEC) were isolated as described previously (L. K. Kelly, Am J Physiol Lung Cell Mol Physiol, 286(5), L984-91 (2004)). Briefly, cells were maintained in Dulbecco's modified Eagle medium (DMEM) supplemented with 10% fetal calf serum (Hyclone, Logan, UT), antibiotics/antimycotic (500 IU Penicillin, 500 μg/ml Streptomycin, 1.25 μg/ml Amphotericin B; MediaTech, Herndon, VA) at 37° C. in a humidified atmosphere with 5% CO2 and 95% air. Cells were used for experiments between passages 9-14, seeded at ˜50% confluence, and utilized when fully confluent.
The level of cell peroxynitrite was determined by the oxidation of dihydrorhodamine (DHR) 123 (EMD Millipore, Billerica, MA) to rhodamine 123, as previously described (S. Aggarwal, J Cell Physiol, 226(12), 3104-13 (2011)). Briefly, cultured PAEC were treated with or without TGF-β1 (5 ng/ml, 8 h) or GW9662 (5 μM, 24 h). The cells were collected and the cell pellet was then treated with PEG-Catalase (100 U, 30 min) to reduce H2O2 dependent DHR 123 oxidation. DHR 123 (5 μM, 30 min) was added to the cell pellet in phenol red-free media and the fluorescence of rhodamine 123 measured using a Fluoroskan Ascent Microplate Fluorometer with excitation at 485 nm and emission at 545 nm. Fluorescent values were normalized to the protein levels in each sample.

With `CCCCCCCCCC(=O)O[C@@H]1[C@@H](C)[C@@]2(O)[C@@H](C=C(CO)C[C@@]3(O)C(=O)C(C)=C[C@@H]23)[C@@H]2C(C)(C)[C@]12OC(=O)CCCCCCCCC` [4αPDD, 4α-Phorbol-12,13 didecanoate] the cellular peroxynitrite levels was “increases”.
